Columns and labels:
GPR183 [1] = molecular target: GPR183 (UniProt P32249); assay: pEC50 of agonist-induced pathway activation (ebBRET)
GPR183 [2] = molecular target: GPR183 (UniProt P32249); assay: Emax (maximal agonist-induced change in ebBRET relative to vehicle) (% of vehicle response (amplitude of change)); higher = larger response (for Gs, larger decrease in membrane ebBRET, i.e. stronger Gs activation)
GPR39 [3] = molecular target: T1, GPR39 (UniProt O43194); assay: pEC50 of agonist-induced pathway activation (ebBRET)
T1 sequence (whole entry): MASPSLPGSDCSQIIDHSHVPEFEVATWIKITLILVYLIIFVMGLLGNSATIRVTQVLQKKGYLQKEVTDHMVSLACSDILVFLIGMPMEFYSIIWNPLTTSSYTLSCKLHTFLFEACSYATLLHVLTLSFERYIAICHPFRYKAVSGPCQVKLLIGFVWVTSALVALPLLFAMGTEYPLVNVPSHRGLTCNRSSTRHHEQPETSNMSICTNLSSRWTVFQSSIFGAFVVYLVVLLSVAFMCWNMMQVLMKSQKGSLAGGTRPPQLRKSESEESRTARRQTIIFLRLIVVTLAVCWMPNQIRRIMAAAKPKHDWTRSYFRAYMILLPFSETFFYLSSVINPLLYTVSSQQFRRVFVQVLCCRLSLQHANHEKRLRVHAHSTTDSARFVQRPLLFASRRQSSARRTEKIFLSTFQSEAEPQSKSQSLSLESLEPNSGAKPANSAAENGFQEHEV

GPR39 [4] = molecular target: T1, GPR39; assay: Emax (maximal agonist-induced change in ebBRET relative to vehicle) (% of vehicle response (amplitude of change)); higher = larger response (for Gs, larger decrease in membrane ebBRET, i.e. stronger Gs activation)
mGluR8 = mGluR8 (UniProt O00222); assay: pEC50 of agonist-induced pathway activation (ebBRET)
Chain of mGluR8 (O00222 whole entry): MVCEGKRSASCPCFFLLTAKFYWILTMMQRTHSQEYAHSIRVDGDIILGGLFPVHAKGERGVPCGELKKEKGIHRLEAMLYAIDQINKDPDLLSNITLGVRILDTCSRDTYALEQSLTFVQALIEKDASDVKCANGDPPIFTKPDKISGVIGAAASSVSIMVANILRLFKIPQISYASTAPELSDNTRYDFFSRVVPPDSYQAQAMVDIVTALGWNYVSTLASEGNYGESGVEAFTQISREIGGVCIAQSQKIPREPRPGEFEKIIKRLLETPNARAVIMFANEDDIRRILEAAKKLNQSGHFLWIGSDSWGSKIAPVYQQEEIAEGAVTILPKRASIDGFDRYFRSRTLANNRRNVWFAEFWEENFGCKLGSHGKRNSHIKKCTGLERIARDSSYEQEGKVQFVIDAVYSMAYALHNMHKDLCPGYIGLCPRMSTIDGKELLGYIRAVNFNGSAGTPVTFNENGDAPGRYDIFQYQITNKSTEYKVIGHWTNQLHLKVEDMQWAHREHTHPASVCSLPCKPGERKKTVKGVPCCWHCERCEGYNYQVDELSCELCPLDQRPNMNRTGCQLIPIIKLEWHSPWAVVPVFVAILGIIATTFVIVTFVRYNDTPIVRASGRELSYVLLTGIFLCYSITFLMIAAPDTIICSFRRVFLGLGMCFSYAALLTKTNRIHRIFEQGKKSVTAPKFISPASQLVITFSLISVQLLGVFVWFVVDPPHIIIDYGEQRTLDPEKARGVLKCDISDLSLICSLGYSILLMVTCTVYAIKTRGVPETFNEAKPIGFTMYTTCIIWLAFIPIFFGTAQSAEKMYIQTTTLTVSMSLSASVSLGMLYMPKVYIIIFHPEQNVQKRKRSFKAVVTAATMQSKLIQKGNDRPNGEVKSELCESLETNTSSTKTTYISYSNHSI

B1 [5] = molecular target: T2, B1 (UniProt P46663); assay: as above
T2 sequence (whole entry): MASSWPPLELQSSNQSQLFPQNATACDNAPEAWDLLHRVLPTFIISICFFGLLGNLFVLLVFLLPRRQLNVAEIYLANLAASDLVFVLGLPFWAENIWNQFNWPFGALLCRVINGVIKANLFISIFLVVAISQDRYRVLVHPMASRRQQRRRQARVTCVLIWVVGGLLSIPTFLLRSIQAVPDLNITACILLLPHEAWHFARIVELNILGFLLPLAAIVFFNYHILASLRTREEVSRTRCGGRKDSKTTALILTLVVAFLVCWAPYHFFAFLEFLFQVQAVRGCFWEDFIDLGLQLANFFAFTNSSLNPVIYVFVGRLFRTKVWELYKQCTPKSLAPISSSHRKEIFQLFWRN

B2 [6] = molecular target: T3, B2 (UniProt P30411); assay: as above
T3 sequence (whole entry): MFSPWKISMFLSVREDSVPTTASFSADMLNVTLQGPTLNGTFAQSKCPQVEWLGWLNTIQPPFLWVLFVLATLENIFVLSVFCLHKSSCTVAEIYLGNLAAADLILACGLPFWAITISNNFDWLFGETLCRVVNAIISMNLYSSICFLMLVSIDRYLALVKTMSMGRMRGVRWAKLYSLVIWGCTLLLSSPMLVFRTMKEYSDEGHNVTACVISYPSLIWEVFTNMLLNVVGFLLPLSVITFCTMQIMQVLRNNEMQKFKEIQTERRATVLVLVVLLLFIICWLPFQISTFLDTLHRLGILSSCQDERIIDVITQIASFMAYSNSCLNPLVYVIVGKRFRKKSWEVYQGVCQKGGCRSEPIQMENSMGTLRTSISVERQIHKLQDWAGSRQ

B1 [7] = molecular target: T2, B1; assay: Emax (maximal agonist-induced change in ebBRET relative to vehicle) (% of vehicle response (amplitude of change)); higher = larger response (for Gs, larger decrease in membrane ebBRET, i.e. stronger Gs activation)
B2 [8] = molecular target: T3, B2; assay: as above
[9] = pathway (G protein / arrestin sensor): G12
[10] = pathway (G protein / arrestin sensor): G15
[11] = pathway (G protein / arrestin sensor): Gi1
[12] = pathway (G protein / arrestin sensor): Gi2
[13] = pathway (G protein / arrestin sensor): GoA
[14] = pathway (G protein / arrestin sensor): GoB
[15] = pathway (G protein / arrestin sensor): Gz
[16] = pathway (G protein / arrestin sensor): βarr1/GRK2
[17] = pathway (G protein / arrestin sensor): βarr2
[18] = pathway (G protein / arrestin sensor): βarr2/GRK2
[19] = pathway (G protein / arrestin sensor): G11
[20] = pathway (G protein / arrestin sensor): G13
[21] = pathway (G protein / arrestin sensor): G14
[22] = pathway (G protein / arrestin sensor): Gq

Chain of GPR183 (P32249 whole entry): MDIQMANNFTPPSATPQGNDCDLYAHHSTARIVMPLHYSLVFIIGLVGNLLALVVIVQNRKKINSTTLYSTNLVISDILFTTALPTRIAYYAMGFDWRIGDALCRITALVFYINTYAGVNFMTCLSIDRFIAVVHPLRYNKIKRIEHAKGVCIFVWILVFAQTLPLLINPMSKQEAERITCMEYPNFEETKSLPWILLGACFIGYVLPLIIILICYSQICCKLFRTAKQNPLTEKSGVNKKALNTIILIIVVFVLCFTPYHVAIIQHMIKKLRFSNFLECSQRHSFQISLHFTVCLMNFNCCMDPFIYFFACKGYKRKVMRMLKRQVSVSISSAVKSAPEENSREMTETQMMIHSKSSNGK

A pEC50 (GPR183 [1]; [9]) of 8.98, a pEC50 (GPR183 [1]; [10]) of 8.51 and a pEC50 (GPR183 [1]; [11]) of 9.74 were found for `C[C@H](CCCC(C)(C)O)[C@H]1CC[C@H]2[C@@H]3[C@H](O)C=C4C[C@@H](O)CC[C@]4(C)[C@H]3CC[C@]12C` [7α-25 dihydroxycholesterol] in this work. The pEC50 (GPR183 [1]; [12]) was 9.75, the pEC50 (GPR183 [1]; [13]) was 9.16 and the pEC50 (GPR183 [1]; [14]) was 9.75. The pEC50 (GPR183 [1]; [15]) was 9.16, the pEC50 (GPR183 [1]; [16]) was 8.95 and the pEC50 (GPR183 [1]; [17]) was 8.23. For the same compound, the pEC50 (GPR183 [1]; [18]) was 8.8, the Emax (GPR183 [2]; [9]) was 53.4 and the Emax (GPR183 [2]; [10]) was 38.1. It also gave an Emax (GPR183 [2]; [11]) of 134, an Emax (GPR183 [2]; [12]) of 144 and an Emax (GPR183 [2]; [13]) of 166. The Emax (GPR183 [2]; [14]) was 190, the Emax (GPR183 [2]; [15]) was 123 and the Emax (GPR183 [2]; [16]) was 1120. It also gave an Emax (GPR183 [2]; [17]) of 502 and an Emax (GPR183 [2]; [18]) of 573.

A pEC50 (GPR39 [3]; [19]) of 4.21, a pEC50 (GPR39 [3]; [20]) of 5.39 and a pEC50 (GPR39 [3]; [21]) of 4.25 were found for `[Cl][Zn][Cl]` [Zn2+] in this work. The pEC50 (GPR39 [3]; [10]) was 4.38, the pEC50 (GPR39 [3]; [11]) was 4.1 and the pEC50 (GPR39 [3]; [12]) was 4.19. It also gave a pEC50 (GPR39 [3]; [13]) of 4.16, a pEC50 (GPR39 [3]; [14]) of 4.25 and a pEC50 (GPR39 [3]; [22]) of 4.48. For the same compound, the pEC50 (GPR39 [3]; [17]) was 4.03, the pEC50 (GPR39 [3]; [18]) was 4.02 and the Emax (GPR39 [4]; [19]) was 136. For the same compound, the Emax (GPR39 [4]; [20]) was 120, the Emax (GPR39 [4]; [21]) was 210 and the Emax (GPR39 [4]; [10]) was 37.6. The Emax (GPR39 [4]; [11]) was 254, the Emax (GPR39 [4]; [12]) was 80.9 and the Emax (GPR39 [4]; [13]) was 137. It also gave an Emax (GPR39 [4]; [14]) of 197, an Emax (GPR39 [4]; [22]) of 113 and an Emax (GPR39 [4]; [17]) of 61.7. It also gave an Emax (GPR39 [4]; [18]) of 41.4.

A pEC50 (mGluR8; [11]) of 5.6, a pEC50 (mGluR8; [12]) of 5.52 and a pEC50 (mGluR8; [13]) of 6.07 were found for `NC(CCC(=O)O)C(=O)O` (stereo not drawn) [Glutamate] in this work. The pEC50 (mGluR8; [14]) was 5.99 and the pEC50 (mGluR8; [15]) was 5.49.

A pEC50 (B1 [5]; [19]) of 6.8, a pEC50 (B1 [5]; [21]) of 6.88 and a pEC50 (B1 [5]; [10]) of 7.54 were found for `NCCCC[C@H](N)C(=O)N[C@@H](CCCN=C(N)N)C(=O)N1CCC[C@H]1C(=O)N1CCC[C@H]1C(=O)NCC(=O)N[C@@H](Cc1ccccc1)C(=O)N[C@@H](CO)C(=O)N1CCC[C@H]1C(=O)N[C@@H](Cc1ccccc1)C(=O)N[C@@H](CCCN=C(N)N)C(=O)O` [Kallidin] in this work. It also gave a pEC50 (B1 [5]; [11]) of 6.64, a pEC50 (B1 [5]; [12]) of 6.75 and a pEC50 (B1 [5]; [13]) of 6.7. For the same compound, the pEC50 (B1 [5]; [14]) was 6.78, the pEC50 (B1 [5]; [22]) was 6.91 and the pEC50 (B1 [5]; [15]) was 6.93. The pEC50 (B2 [6]; [19]) was 9.54, the pEC50 (B2 [6]; [9]) was 10.2 and the pEC50 (B2 [6]; [20]) was 9.16. The pEC50 (B2 [6]; [21]) was 9.54, the pEC50 (B2 [6]; [10]) was 8.75 and the pEC50 (B2 [6]; [11]) was 8.14. For the same compound, the pEC50 (B2 [6]; [12]) was 7.87, the pEC50 (B2 [6]; [13]) was 7.83 and the pEC50 (B2 [6]; [14]) was 8.14. It also gave a pEC50 (B2 [6]; [22]) of 9.71, a pEC50 (B2 [6]; [15]) of 8.65 and a pEC50 (B2 [6]; [16]) of 8.62. It also gave a pEC50 (B2 [6]; [17]) of 8.54, a pEC50 (B2 [6]; [18]) of 8.52 and an Emax (B1 [7]; [19]) of 201. The Emax (B1 [7]; [21]) was 162, the Emax (B1 [7]; [10]) was 78.9 and the Emax (B1 [7]; [11]) was 94.8. The Emax (B1 [7]; [12]) was 65.7, the Emax (B1 [7]; [13]) was 81.3 and the Emax (B1 [7]; [14]) was 161. It also gave an Emax (B1 [7]; [22]) of 171, an Emax (B1 [7]; [15]) of 32.3 and an Emax (B2 [8]; [19]) of 802. The Emax (B2 [8]; [9]) was 83.2, the Emax (B2 [8]; [20]) was 484 and the Emax (B2 [8]; [21]) was 871. The Emax (B2 [8]; [10]) was 1050, the Emax (B2 [8]; [11]) was 478 and the Emax (B2 [8]; [12]) was 257. It also gave an Emax (B2 [8]; [13]) of 149, an Emax (B2 [8]; [14]) of 360 and an Emax (B2 [8]; [22]) of 576. It also gave an Emax (B2 [8]; [15]) of 204, an Emax (B2 [8]; [16]) of 1740 and an Emax (B2 [8]; [17]) of 889. For the same compound, the Emax (B2 [8]; [18]) was 1180.
